Reference: patent US20040054182A1, “1h-imidazopyridine derivatives” (priority 2000, published 2004)
Counter-ions that a name gives are not always drawn.

| SMILES | melting point |
| --- | --- |
| FC(F)(F)c1nc2ccccc2c2c1nc(C1CCCCC1)n2CCC1CCNCC1 (as salt: trifluoroacetate) [Example 71, 2-Cyclohexyl-1-[2-(4-piperidyl)ethyl]-4-trifluoromethyl-1H-imidazo[4,5-c]quinoline] | 182.5 to 184 °C |
| Cc1ccc2c(c1)nc(C(F)(F)F)c1nc(-c3ncc[nH]3)n(CCC3CCNCC3)c12 (as salt: trifluoroacetate) (hydrate or solvate) [Example 89, 2-(2-1H-Imidazolyl)-7-methyl-1-[2-(4-piperidyl)ethyl]-4-trifluoromethyl-1H-imidazo[4,5-c]quinoline] | 303 to 305 °C (dec.) |
| NCCn1c(-c2ccccc2)nc2c(C(F)(F)F)nc3ccccc3c21 [Example 108, 1-(2-Aminoethyl)-2-phenyl-4-trifluoromethyl-1H-imidazo[4,5-c]quinoline] | 174.5 to 175.5 °C |
| FC(F)(F)c1nc2ccccc2c2c1nc(-c1nccs1)n2CCC1CCNCC1 [Example 70, 1-[2-(4-Piperidyl)ethyl]-2-(2-thiazolyl)-4-trifluoromethyl-1H-imidazo[4,5-c]-quinoline] | 199 to 200 °C |
| FC(F)(F)c1nc2ccccc2c2c1nc(-c1ccccc1)n2CCN1CCNCC1 [Example 99, 2-Phenyl-1-[2-(1-piperazinyl)ethyl]-4-trifluoromethyl-1H-imidazo[4,5-c]-quinoline] | 187 to 188 °C |
| Cc1ccc2c(c1)nc(C(F)(F)F)c1nc(-c3ccccc3O)n(CCC3CCNCC3)c12 (as salt: trifluoroacetate) | 161 to 162 °C |
| Cc1cccc2c1nc(C(F)(F)F)c1nc(-c3ncc[nH]3)n(CCC3CCNCC3)c12 (as salt: trifluoroacetate) (hydrate or solvate) [Example 96, 2-(2-1H-Imidazolyl)-6-methyl-1-[2-(4-piperidyl)ethyl]-4-trifluoromethyl-1H-imidazo[4,5-c]quinoline] | 306 to 308 °C (dec.) |
| FC(F)(F)c1nc2ccccc2c2c1nc(-c1ccccc1)n2CCC1CC2CCC(C1)N2 (stereo not drawn) (as salt: trifluoroacetate) | 249 to 251 °C (dec.) |
| FC(F)(F)c1nc2ccccc2c2c1nc(-c1ccc[nH]1)n2CCC1CCNCC1 [Example 64, 1-[2-(4-Piperidyl)ethyl]-2-(2-pyrrolyl)-4-trifluoromethyl-1H-imidazo[4,5-c]-quinoline] | 280 to 282.5 °C (dec.) |
| Cc1cccc2c1nc(C(F)(F)F)c1nc(-c3ccccc3)n(CCC3CCNCC3)c12 (as salt: trifluoroacetate) [Example 93, 6-Methyl-2-phenyl-1-[2-(4-piperidyl)ethyl]-4-trifluoromethyl-1H-imidazo-[4,5-c]quinoline] | 218 to 219 °C (dec.) |
| FC(F)(F)c1nc2ccccc2c2c1nc(-c1ccccc1)n2CCC1CCCNC1 (stereo not drawn) (as salt: trifluoroacetate) | 229.5 to 231.5 °C (dec.) |
| CN(C)CC(=O)NCCn1c(-c2ccccc2)nc2c(C(F)(F)F)nc3ccccc3c21.O=C(O)/C=C/C(=O)O [Example 128, 2-Dimethylamino-N-[2-(2-phenyl-4-trifluoromethyl-1H-imidazo[4,5-c]quinolin-1-yl)-ethyl]acetamide fumarate] | 207.5 to 208 °C |
| c1ccc(-c2nc3c(-c4cccs4)nc4ccccc4c3n2CCC2CCNCC2)cc1 (as salt: salt) [Example 115, 2-Phenyl-1-[2-(4-piperidyl)ethyl]-4-(2-thienyl)-1H-imidazo[4,5-c]quinoline] | 210 to 212 °C |
| O=C(CCl)NCCn1c(-c2ccccc2)nc2c(C(F)(F)F)nc3ccccc3c21 [Example 124, 2-chloro-N-[2-(2-phenyl-4-trifluoromethyl-1H-imidazo[4,5-c]quinolin-1-yl)ethyl]acetamide] | 230.5 to 231.5 °C |
| CN(C)CC(=O)NCCn1c(-c2ccc[nH]2)nc2c(C(F)(F)F)nc3ccccc3c21.O=C(O)/C=C/C(=O)O [Example 129, 2-Dimethylamino-N-[2-[2-(2-pyrrolyl)-4-trifluoromethyl-1H-imidazo[4,5-c]quinolin-1-yl]ethyl]acetamide fumarate] | 219 to 222 °C (dec.) |
| c1c[nH]c(-c2nc3c(C4CC4)nc4ccccc4c3n2CCC2CCNCC2)c1 (hydrate or solvate) [Example 111, 4-Cyclopropyl-1-[2-(4-piperidyl)ethyl]-2-(2-pyrrolyl)-1H-imidazo[4,5-c]quinoline] | 212 to 213.5 °C |
| c1ccc(-c2nc3ccccc3c3c2nc(-c2ccc[nH]2)n3CCC2CCNCC2)cc1 (hydrate or solvate) [Example 113, 4-Phenyl-1-[2-(4-piperidyl)ethyl]-2-(2-pyrrolyl)-1H-imidazo[4,5-c]quinoline] | 268 to 270 °C |
| Cc1cccc2c1nc(C(F)(F)F)c1nc(-c3cccs3)n(CCC3CCNCC3)c12 (as salt: trifluoroacetate) (hydrate or solvate) [Example 98, 6-Methyl-1-[2-(4-piperidyl)ethyl]-2-(2-thienyl)-4-trifluoromethyl-1H-imidazo-[4,5-c]quinoline] | 227 to 229 °C (dec.) |

| SMILES | melting point |
| --- | --- |
| FC(F)(F)c1nc2cc(Cl)ccc2c2c1nc(C1CCCC1)n2CCC1CCNCC1 (as salt: trifluoroacetate) | 246 to 248 °C (dec.) |
| c1ccc(-c2nc3c(-c4ccco4)nc4ccccc4c3n2CCC2CCNCC2)cc1 | 224.5 to 225.5 °C |
| CNCC(=O)NCCn1c(-c2ccccc2)nc2c(C(F)(F)F)nc3ccccc3c21 [Example 127, 2-Methylamino-N-[2-(2-phenyl-4-trifluoromethyl-1H-imidazo[4,5-c]quinolin-1-yl)-ethyl]acetamide] | 208 to 209 °C |
| O=C(CCl)NCCn1c(-c2ccc[nH]2)nc2c(C(F)(F)F)nc3ccccc3c21 [Example 125, 2-chloro-N-[2-[2-(2-pyrrolyl)-4-trifluoromethyl-1H-imidazo-[4,5-c]quinolin-1-yl]ethyl]acetamide] | 234 to 235 °C |
| FC(F)(F)c1nc2ccccc2c2c1nc(-c1ccc[nH]1)n2CCC1CNCCO1 (stereo not drawn) (as salt: trifluoroacetate) [Example 102, 1-[2-(2-Morpholinyl)ethyl]-2-(2-pyrrolyl)-4-trifluoromethyl-1H-imidazo[4,5-c]-quinoline] | 254 to 258 °C (dec.) |
| Fc1ccc2c(c1)nc(C(F)(F)F)c1nc(-c3cccs3)n(CCC3CCNCC3)c12 (as salt: trifluoroacetate) (hydrate or solvate) [Example 85, 7-Fluoro-1-[2-(4-piperidyl)ethyl]-2-(2-thienyl)-4-trifluoromethyl-1H-imidazo-[4,5-c]quinoline] | 234 to 235 °C (dec.) |
| FC(F)(F)c1nc2ccccc2c2c1nc(-c1ccccc1)n2CCC1CNCCO1 (stereo not drawn) (as salt: trifluoroacetate) (hydrate or solvate) [Example 101, 1-[2-(2-Morpholinyl)ethyl]-2-phenyl-4-trifluoromethyl-1H-imidazo[4,5-c]-quinoline] | 224 to 228 °C (dec.) |
| FC(F)(F)c1nc2cc(Cl)ccc2c2c1nc(-c1nccs1)n2CCC1CCNCC1 [Example 74, 7-Chloro-1-[2-(4-piperidyl)ethyl]-2-(2-thiazolyl)-4-trifluoromethyl-1H-imidazo-[4,5-c]quinoline] | 232.5 to 234 °C (dec.) |
| NCC(=O)NCCn1c(-c2ccc[nH]2)nc2c(C(F)(F)F)nc3ccccc3c21.O=C(O)/C=C/C(=O)O [Example 131, 2-Amino-N-[2-[2-(2-pyrrolyl)-4-trifluoromethyl-1H-imidazo[4,5-c]quinolin-1-yl]ethyl]-acetamide fumarate] | 176 to 177 °C (dec.) |
| Cc1ccc2c(c1)nc(C(F)(F)F)c1nc(-c3ccc[nH]3)n(CCC3CCNCC3)c12 (as salt: trifluoroacetate) (hydrate or solvate) [Example 87, 7-Methyl-1-[2-(4-piperidyl)ethyl]-2-(2-pyrrolyl)-4-trifluoromethyl-1H-imidazo-[4,5-c]quinoline] | 280 to 284 °C (dec.) |
| FC(F)(F)c1nc2cc(Cl)ccc2c2c1nc(-c1ccco1)n2CCC1CCNCC1 (as salt: trifluoroacetate) | 219 to 221 °C (dec.) |
| Fc1ccc2c(c1)nc(C(F)(F)F)c1nc(-c3nccs3)n(CCC3CCNCC3)c12 (as salt: trifluoroacetate) [Example 82, 7-Fluoro-1-[2-(4-piperidyl)ethyl]-2-(2-thiazolyl)-4-trifluoromethyl-1H-imidazo-[4,5-c]quinoline] | 236 to 237 °C (dec.) |
| Cc1ccc2c(c1)nc(C(F)(F)F)c1nc(-c3nccs3)n(CCC3CCNCC3)c12 (as salt: trifluoroacetate) (hydrate or solvate) [Example 88, 7-Methyl-1-[2-(4-piperidyl)ethyl]-2-(2-thiazolyl)-4-trifluoromethyl-1H-imidazo-[4,5-c]quinoline] | 239 to 241 °C (dec.) |
| FC(F)(F)c1nc2cc(Cl)ccc2c2c1nc(-c1cccs1)n2CCC1CCNCC1 (as salt: trifluoroacetate) (hydrate or solvate) [Example 77, 7-Chloro-1-[2-(4-piperidyl)ethyl]-2-(2-thienyl)-4-trifluoromethyl-1H-imidazo-[4,5-c]quinoline] | 217 to 219 °C (dec.) |
| NCCn1c(-c2ccc[nH]2)nc2c(C(F)(F)F)nc3ccccc3c21 [Example 109, 1-(2-Aminoethyl)-2-(2-pyrrolyl)-4-trifluoromethyl-1H-imidazo[4,5-c]quinoline] | 195.5 to 196.5 °C |
| FC(F)(F)c1nc2cc(Cl)ccc2c2c1nc(-c1ncc[nH]1)n2CCC1CCNCC1 (as salt: trifluoroacetate) [Example 75, 7-Chloro-2-(2-1H-imidazolyl)-1-[2-(4-piperidyl)ethyl]-4-trifluoromethyl-1H-imidazo[4,5-c]quinoline] | 290 to 295 °C (dec.) |
| Fc1ccc2c(c1)nc(C(F)(F)F)c1nc(-c3ccccc3)n(CCC3CCNCC3)c12 (as salt: trifluoroacetate) [Example 80, 7-Fluoro-2-phenyl-1-[2-(4-piperidyl)ethyl]-4-trifluoromethyl-1H-imidazo[4,5-c]-quinoline] | 240 to 242 °C (dec.) |
| Cc1cccc2c1nc(C(F)(F)F)c1nc(-c3nccs3)n(CCC3CCNCC3)c12 (as salt: trifluoroacetate) [Example 95, 6-Methyl-1-[2-(4-piperidyl)ethyl]-2-(2-thiazolyl)-4-trifluoromethyl-1H-imidazo-[4,5-c]quinoline] | 243 to 245 °C (dec.) |
